Measured values: ChEMBL document CHEMBL1909046, “DrugMatrix in vitro pharmacology data”

How the values were obtained:
[1] = target: 5-hydroxytryptamine receptor 2B (Homo sapiens, UniProt P41595); type: cell membranes, CHO-K1, Membrane; settings: for Ki: read-out: Ki; as to all read-outs here: in other assays of this panel Not Active means under 50% inhibition at 10 µM
[2] = target: 5-hydroxytryptamine receptor 4 (Cavia porcellus, UniProt O70528); type: cell membranes, Dunkin-Hartley, Striatum, Membrane; also: in other assays of this panel Not Active means under 50% inhibition at 10 µM
Chain of 5-hydroxytryptamine receptor 4 (O70528 whole entry): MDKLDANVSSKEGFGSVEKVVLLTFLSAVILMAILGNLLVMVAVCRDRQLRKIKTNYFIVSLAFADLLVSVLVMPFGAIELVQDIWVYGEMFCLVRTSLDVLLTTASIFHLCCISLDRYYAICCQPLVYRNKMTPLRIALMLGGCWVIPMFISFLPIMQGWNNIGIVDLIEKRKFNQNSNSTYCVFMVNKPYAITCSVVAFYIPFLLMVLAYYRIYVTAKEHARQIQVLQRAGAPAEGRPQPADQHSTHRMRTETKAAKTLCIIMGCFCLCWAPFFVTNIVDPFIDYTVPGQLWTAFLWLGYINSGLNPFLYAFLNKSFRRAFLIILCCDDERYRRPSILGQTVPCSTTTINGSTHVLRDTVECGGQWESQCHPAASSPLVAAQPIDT

[3] = target: T1, Vasoactive intestinal polypeptide receptor 1 (Homo sapiens, UniProt P32241); type: cell membranes, Membrane; settings: ht-29; also: in other assays of this panel Not Active means under 50% inhibition at 10 µM
T1 sequence (P32241 whole entry): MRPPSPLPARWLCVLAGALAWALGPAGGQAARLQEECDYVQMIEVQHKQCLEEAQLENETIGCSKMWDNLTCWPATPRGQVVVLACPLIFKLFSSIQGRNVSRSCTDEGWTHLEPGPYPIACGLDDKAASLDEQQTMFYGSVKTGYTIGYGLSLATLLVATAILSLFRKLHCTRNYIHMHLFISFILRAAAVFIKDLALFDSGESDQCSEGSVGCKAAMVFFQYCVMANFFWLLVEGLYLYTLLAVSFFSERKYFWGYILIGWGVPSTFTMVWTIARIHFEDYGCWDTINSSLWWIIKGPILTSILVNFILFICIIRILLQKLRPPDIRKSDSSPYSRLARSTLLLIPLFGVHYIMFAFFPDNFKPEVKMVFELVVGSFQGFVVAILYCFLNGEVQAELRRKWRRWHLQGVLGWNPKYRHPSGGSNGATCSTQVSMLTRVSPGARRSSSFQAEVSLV

[4] = target: T2, 5-hydroxytryptamine receptor 2C (Homo sapiens, UniProt P28335); experiment: DRUGMATRIX: Serotonin (5-Hydroxytryptamine) 5-HT2C radioligand binding (ligand: [3H] Mesulergine); type: cell membranes, CHO-K1, Membrane; settings: Not Active = under 50% inhibition at 10 µM; for Ki: read-out: Ki
T2 sequence (P28335 whole entry): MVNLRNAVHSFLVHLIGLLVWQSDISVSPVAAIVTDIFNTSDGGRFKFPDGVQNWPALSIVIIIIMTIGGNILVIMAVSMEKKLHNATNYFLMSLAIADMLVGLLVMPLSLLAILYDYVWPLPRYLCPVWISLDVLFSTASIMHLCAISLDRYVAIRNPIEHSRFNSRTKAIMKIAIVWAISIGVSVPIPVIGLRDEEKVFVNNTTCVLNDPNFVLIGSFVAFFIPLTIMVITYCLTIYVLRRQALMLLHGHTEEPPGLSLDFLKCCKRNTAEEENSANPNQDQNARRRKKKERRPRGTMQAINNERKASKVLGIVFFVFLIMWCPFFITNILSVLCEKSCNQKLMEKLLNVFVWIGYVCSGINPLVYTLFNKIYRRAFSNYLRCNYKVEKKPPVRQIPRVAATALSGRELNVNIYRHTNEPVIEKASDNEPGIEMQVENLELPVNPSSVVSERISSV

Cytochrome P450 2A6 = target: T3, Cytochrome P450 2A6 (Homo sapiens, UniProt P11509); settings: bti-tn-5b1-4; also: in other assays of this panel Not Active means under 50% inhibition at 10 µM
T3 sequence (P11509 whole entry): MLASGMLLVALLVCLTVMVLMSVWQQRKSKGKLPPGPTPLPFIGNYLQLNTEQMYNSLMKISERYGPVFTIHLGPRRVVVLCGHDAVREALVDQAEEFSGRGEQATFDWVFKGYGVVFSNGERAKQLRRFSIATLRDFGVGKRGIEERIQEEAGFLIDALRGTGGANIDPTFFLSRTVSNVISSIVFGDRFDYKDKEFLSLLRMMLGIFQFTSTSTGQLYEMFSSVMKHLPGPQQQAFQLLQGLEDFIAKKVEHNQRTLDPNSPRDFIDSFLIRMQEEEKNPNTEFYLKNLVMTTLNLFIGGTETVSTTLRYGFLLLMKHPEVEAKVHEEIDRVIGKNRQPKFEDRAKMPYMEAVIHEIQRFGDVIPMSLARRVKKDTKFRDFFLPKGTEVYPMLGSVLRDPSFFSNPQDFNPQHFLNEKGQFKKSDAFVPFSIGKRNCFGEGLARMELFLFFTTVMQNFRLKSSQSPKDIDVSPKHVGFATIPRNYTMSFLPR

Progesterone receptor = target: T4, Progesterone receptor (Bos taurus, UniProt Q690N0); experiment: DRUGMATRIX: Progesterone radioligand binding (ligand: [3H] R-5020); type: tissue-based, Uterus; settings: Not Active = under 50% inhibition at 10 µM
T4 sequence (Q690N0 whole entry): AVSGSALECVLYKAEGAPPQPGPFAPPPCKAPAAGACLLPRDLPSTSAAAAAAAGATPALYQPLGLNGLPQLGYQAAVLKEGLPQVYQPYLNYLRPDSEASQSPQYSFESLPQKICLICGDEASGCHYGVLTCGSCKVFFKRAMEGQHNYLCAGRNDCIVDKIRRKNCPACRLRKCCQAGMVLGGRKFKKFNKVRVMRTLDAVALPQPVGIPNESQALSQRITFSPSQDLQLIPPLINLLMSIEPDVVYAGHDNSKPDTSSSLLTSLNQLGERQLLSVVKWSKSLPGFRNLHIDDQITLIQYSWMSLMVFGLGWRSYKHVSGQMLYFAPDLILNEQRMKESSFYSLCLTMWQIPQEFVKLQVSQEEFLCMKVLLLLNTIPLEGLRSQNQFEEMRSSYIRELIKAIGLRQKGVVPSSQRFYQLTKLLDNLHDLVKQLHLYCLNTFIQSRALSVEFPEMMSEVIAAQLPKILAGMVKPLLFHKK

Chain of 5-hydroxytryptamine receptor 2B (P41595 whole entry): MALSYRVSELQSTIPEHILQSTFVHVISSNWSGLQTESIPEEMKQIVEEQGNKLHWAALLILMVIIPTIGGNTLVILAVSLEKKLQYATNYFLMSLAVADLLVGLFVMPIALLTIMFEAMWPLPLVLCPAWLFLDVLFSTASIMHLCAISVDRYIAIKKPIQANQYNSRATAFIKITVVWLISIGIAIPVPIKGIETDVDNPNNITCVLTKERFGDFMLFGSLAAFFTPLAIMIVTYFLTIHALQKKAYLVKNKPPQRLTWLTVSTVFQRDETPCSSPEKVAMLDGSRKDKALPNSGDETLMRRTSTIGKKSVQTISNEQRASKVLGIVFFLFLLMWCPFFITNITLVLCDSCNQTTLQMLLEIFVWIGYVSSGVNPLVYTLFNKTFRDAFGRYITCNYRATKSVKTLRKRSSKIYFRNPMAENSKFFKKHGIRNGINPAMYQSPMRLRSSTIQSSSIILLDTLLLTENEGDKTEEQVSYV

Structure (SMILES) | IC50 ([1]; cho-k1) | IC50 [2] | IC50 [3] | IC50 ([4]; cho-k1) | IC50 (Cytochrome P450 2A6) | Ki (Cytochrome P450 2A6) | IC50 (Progesterone receptor) | IC50 ([1]; read-out: IC50) [nM] | Ki [1] [nM] | IC50 ([4]; read-out: IC50) [nM] | Ki [4] [nM] | IC50 (Progesterone receptor; read-out: IC50) [nM] | Ki (Progesterone receptor; read-out: Ki) [nM] | Ki [2]
CC(C(=O)O)c1cccc(Oc2ccccc2)c1 (stereo not given) [FENOPROFEN] | Not Active | Not Active | Not Active | Not Active | Not Active | Not Active | Not Active | – | – | – | – | – | – | –
CC(C)(C)NC(=O)[C@H]1CC[C@H]2[C@@H]3CC[C@H]4NC(=O)C=C[C@]4(C)[C@H]3CC[C@]12C [FINASTERIDE] | Not Active | Not Active | Not Active | Not Active | Not Active | Not Active | Not Active | – | – | – | – | – | – | –
Nc1ccn([C@@H]2O[C@H](CO)[C@@H](O)C2(F)F)c(=O)n1 [GEMCITABINE] | Not Active | Not Active | Not Active | Not Active | Not Active | Not Active | Not Active | – | – | – | – | – | – | –
N=C(N)NC(=O)Cc1c(Cl)cccc1Cl [GUANFACINE] | – | Not Active | Not Active | – | Not Active | Not Active | Not Active | 2100 | 1340 | 1450 | 761 | – | – | –
NNc1nncc2ccccc12 [HYDRALAZINE] | Not Active | Not Active | Not Active | Not Active | Not Active | Not Active | Not Active | – | – | – | – | – | – | –
COC1=C(OC)C(=O)C(CCCCCCCCCCO)=C(C)C1=O [IDEBENONE] | Not Active | Not Active | Not Active | Not Active | Not Active | Not Active | Not Active | – | – | – | – | – | – | –
CC(C)NNC(=O)c1ccncc1 [IPRONIAZID] | Not Active | Not Active | Not Active | Not Active | Not Active | Not Active | Not Active | – | – | – | – | – | – | –
Cc1c(OCC(F)(F)F)ccnc1C[S+]([O-])c1nc2ccccc2[nH]1 (stereo not given) [LANSOPRAZOLE] | Not Active | Not Active | Not Active | Not Active | Not Active | Not Active | Not Active | – | – | – | – | – | – | –
O=c1cc(N2CCOCC2)oc2c(-c3ccccc3)cccc12 [LY-294002] | – | Not Active | Not Active | – | Not Active | Not Active | Not Active | 36700 | 23400 | 1000 | 525 | – | – | –
COc1ccc2[nH]cc(CCNC(C)=O)c2c1 [MELATONIN] | Not Active | Not Active | Not Active | Not Active | Not Active | Not Active | Not Active | – | – | – | – | – | – | –
NC(=O)C[S+]([O-])C(c1ccccc1)c1ccccc1 (stereo not given) [MODAFINIL] | Not Active | Not Active | Not Active | Not Active | Not Active | Not Active | Not Active | – | – | – | – | – | – | –
CCN(CC)CCOCCC1=CCC2CC1C2(C)C (stereo not given) [MYRTECAINE] | Not Active | Not Active | Not Active | Not Active | Not Active | Not Active | Not Active | – | – | – | – | – | – | –
O=C(O)c1cccnc1Nc1cccc(C(F)(F)F)c1 [NIFLUMIC ACID] | Not Active | Not Active | Not Active | Not Active | Not Active | Not Active | Not Active | – | – | – | – | – | – | –
O=C(N/N=C/c1ccc([N+](=O)[O-])o1)c1cc([N+](=O)[O-])cc([N+](=O)[O-])c1O [NIFURSOL] | Not Active | Not Active | Not Active | Not Active | Not Active | Not Active | Not Active | – | – | – | – | – | – | –
COC(=O)Nc1nc2ccc(C(=O)c3cccs3)cc2[nH]1 [NOCODAZOLE] | – | Not Active | Not Active | Not Active | Not Active | Not Active | Not Active | 20200 | 12800 | – | – | – | – | –
C#CC1(O)CC[C@H]2[C@@H]3CCC4=CC(=O)CC[C@@H]4[C@H]3CC[C@@]21CC (stereo not given in full) [NORGESTREL] | Not Active | Not Active | Not Active | Not Active | Not Active | Not Active | – | – | – | – | – | 3.51 | 0.458 | –
COC(=O)Nc1nc2ccc([S+]([O-])c3ccccc3)cc2[nH]1 (stereo not given) [OXFENDAZOLE] | Not Active | Not Active | Not Active | Not Active | Not Active | Not Active | Not Active | – | – | – | – | – | – | –
CC(=O)O[C@H]1C(=O)[C@@]2(C)[C@H]([C@H](OC(=O)c3ccccc3)[C@]3(O)C[C@H](OC(=O)[C@H](O)[C@@H](NC(=O)c4ccccc4)c4ccccc4)C(C)=C1C3(C)C)[C@]1(OC(C)=O)CO[C@@H]1C[C@@H]2O [PACLITAXEL] | Not Active | Not Active | Not Active | Not Active | Not Active | Not Active | Not Active | – | – | – | – | – | – | –
C[n+]1ccc(-c2cc[n+](C)cc2)cc1.[Cl-].[Cl-] [PARAQUAT DICHLORIDE] | Not Active | Not Active | Not Active | Not Active | Not Active | Not Active | Not Active | – | – | – | – | – | – | –
CCn1cc(C(=O)O)c(=O)c2cnc(N3CCCC3)nc21 [PIROMIDIC ACID] | Not Active | Not Active | Not Active | Not Active | Not Active | Not Active | Not Active | – | – | – | – | – | – | –
C[n+]1ccccc1/C=N/O.[Cl-] [PRALIDOXIME CHLORIDE] | Not Active | – | Not Active | Not Active | Not Active | Not Active | Not Active | – | – | – | – | – | – | Not Active
COc1cc2nc(N3CCN(C(=O)c4ccco4)CC3)nc(N)c2cc1OC [PRAZOSIN] | – | Not Active | Not Active | Not Active | Not Active | Not Active | Not Active | 4120 | 2620 | – | – | – | – | –
C[C@]12C=CC(=O)C=C1CC[C@@H]1[C@@H]2[C@@H](O)C[C@@]2(C)[C@H]1CC[C@]2(O)C(=O)CO [PREDNISOLONE] | Not Active | Not Active | Not Active | Not Active | Not Active | Not Active | Not Active | – | – | – | – | – | – | –
CC(=O)[C@H]1[C@H](C#N)C[C@H]2[C@@H]3CC=C4C[C@@H](O)CC[C@]4(C)[C@H]3CC[C@@]21C [PREGNENOLONE CARBONITRILE] | Not Active | Not Active | Not Active | Not Active | Not Active | Not Active | Not Active | – | – | – | – | – | – | –
